# From ChEMBL document CHEMBL1201862, “PubChem BioAssay data set” (2004)
# Where “and” joins values, the source holds several entries; their conditions need not be identical. Equal values may be shown once.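 Exposure lasted 48 hours, with cells grown in 96-well plates and compounds tested at five concentrations. Here, GI50 denotes the concentration required for 50% inhibition of growth.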 Calls of active or inactive are those of the source. Cut-off read from the data, not from the text of the source: active = GI50 up to about 1.1 µM and inactive = higher. Where a SMILES comes first, the peptide text is derived from it. [ ]: non-standard residue; d: D form. The star is where a group is joined. Octanoyl = CCCCCCCC(=O)*; Aib = CC(C)(N)C(=O)O; tBu = CC(C)(C)*
# Assays:
# Test in all cases: inhibition of tumour cell growth, NCI panel, 48 h
# UACC-257 = system: UACC-257
# NCI-H23 = system: NCI-H23
# NCI-H522 = system: NCI-H522
# CAKI-1 = system: CAKI-1
# Hs-578T = system: Hs-578T
# CCRF-CEM = system: CCRF-CEM
# OVCAR-3 = system: OVCAR-3
# RXF 393 = system: RXF 393
# SF-295 = system: SF-295
# SK-MEL-5 = system: SK-MEL-5
# HOP-62 = system: HOP-62
# NCI/ADR-RES = system: NCI/ADR-RES
# SN12C = system: SN12C
# SNB-19 = system: SNB-19
# COLO 205 = system: COLO 205
# KM12 = system: KM12
# MDA-MB-435 = system: MDA-MB-435
# HCT-116 = system: HCT-116
# LOX IMVI = system: LOX IMVI
# HOP-92 = system: HOP-92
SMILES,GI50 (UACC-257),GI50 (NCI-H23),GI50 (NCI-H522),GI50 (CAKI-1),GI50 (Hs-578T),GI50 (CCRF-CEM),GI50 (OVCAR-3),GI50 (RXF 393),GI50 (SF-295),GI50 (SK-MEL-5),GI50 (HOP-62),GI50 (NCI/ADR-RES),GI50 (SN12C),GI50 (SNB-19),GI50 (COLO 205),GI50 (KM12),GI50 (MDA-MB-435),GI50 (HCT-116),GI50 (LOX IMVI),GI50 (HOP-92)
CCCCC(=O)OC[n+]1ccc2c(C)c3[nH]c4ccccc4c3c(C)c2c1,1.43 µM (inactive),0.14 µM (active),0.773 µM (active),1.25 µM (inactive),0.217 µM (active),0.0432 µM (active),1.22 µM (inactive),0.297 µM (active),0.676 µM (active),1.39 µM (inactive),0.537 µM (active),0.526 µM (active),0.376 µM (active),0.466 µM (active),0.535 µM (active),0.446 µM (active),0.618 µM (active),0.221 µM (active),0.493 µM (active),1.62 µM (inactive)
Cc1nc2c(=O)[nH]c3ccc(Cl)cc3c2o1,> 100 µM (inactive),> 100 µM (inactive),> 100 µM (inactive),> 100 µM (inactive),> 100 µM (inactive),> 100 µM (inactive),> 100 µM (inactive),> 100 µM (inactive),> 100 µM (inactive),> 100 µM (inactive),> 100 µM (inactive),> 100 µM (inactive),> 100 µM (inactive),> 100 µM (inactive),> 100 µM (inactive),> 100 µM (inactive),> 100 µM (inactive),> 100 µM (inactive),> 100 µM (inactive),> 100 µM (inactive)
CC(C)OC(=O)Nc1c([N+](=O)[O-])cc(C(F)(F)F)cc1[N+](=O)[O-],> 100 µM (inactive),69.5 µM (inactive),> 95.7 µM (inactive),> 100 µM (inactive),35.1 µM (inactive),> 100 µM (inactive),> 100 µM (inactive),20.1 µM (inactive),54.1 µM (inactive),> 100 µM (inactive),93.3 µM (inactive),> 100 µM (inactive),> 91 µM (inactive),41.1 µM (inactive),> 100 µM (inactive),> 100 µM (inactive),> 100 µM (inactive),> 100 µM (inactive),> 100 µM (inactive),33 µM (inactive)
CC(C)C1=C2CCC3(C)C(CCC4C5C6OCC5(CCC6(C)C)CCC43C)C2(C)CC1 (stereo not given),18.1 µM (inactive),21.3 µM (inactive),18.8 µM (inactive),20 µM (inactive),22.8 µM (inactive),12.3 µM (inactive),21.3 µM (inactive),20.6 µM (inactive),19.7 µM (inactive),21.8 µM (inactive),18.1 µM (inactive),18.9 µM (inactive),15 µM (inactive),29.1 µM (inactive),16.7 µM (inactive),16.9 µM (inactive),17.4 µM (inactive),18.8 µM (inactive),14.4 µM (inactive),18.6 µM (inactive)
CC(=O)OC(C)c1cc2c(s1)C(=O)c1scc(C(C)OC(C)=O)c1C2=O (stereo not given),0.174 µM (active),0.157 µM (active),0.215 µM (active),1.56 µM (inactive),0.339 µM (active),0.367 µM (active),0.307 µM (active),0.301 µM (active),0.164 µM (active),0.0653 µM (active),0.191 µM (active),0.255 µM (active),0.288 µM (active),0.201 µM (active),0.512 µM (active),0.195 µM (active),0.0292 µM (active),0.285 µM (active),0.118 µM (active),1.71 µM (inactive)
CCOC(=O)c1[nH]cc(C)c1-c1c[nH]c2ccccc12,26.2 µM (inactive),27.2 µM (inactive),24.6 µM (inactive),37.1 µM (inactive),16.7 µM (inactive),18.9 µM (inactive),26.7 µM (inactive),30.1 µM (inactive),29 µM (inactive),13.8 µM (inactive),35.3 µM (inactive),21.4 µM (inactive),56 µM (inactive),24.9 µM (inactive),15.4 µM (inactive),42.6 µM (inactive),26 µM (inactive),6.93 µM (inactive),18 µM (inactive),22.8 µM (inactive)
COCCN(C(=O)c1ccccc1)C1CCC2(SCCS2)c2[nH]c3ccccc3c21 (stereo not given),59.2 µM (inactive),51.5 µM (inactive),23.3 µM (inactive),79.6 µM (inactive),29.4 µM (inactive),29.8 µM (inactive),51.2 µM (inactive),20.7 µM (inactive),42.7 µM (inactive),22.9 µM (inactive),> 100 µM (inactive),30.2 µM (inactive),40.2 µM (inactive),89.5 µM (inactive),37.7 µM (inactive),28.5 µM (inactive),20.4 µM (inactive),37.8 µM (inactive),57.7 µM (inactive),20.1 µM (inactive)
COc1ccc(C2C(C(=O)c3ccccc3)=C(O)C(O)(CC(=O)c3ccccc3)N2c2ccc(OC)cc2)cc1 (stereo not given),7.94 µM (inactive),21.1 µM (inactive),4.35 µM (inactive),24.5 µM (inactive),28.6 µM (inactive),3.52 µM (inactive),7.67 µM (inactive),9.38 µM (inactive),12.3 µM (inactive),9.57 µM (inactive),18.8 µM (inactive),12.5 µM (inactive),21.6 µM (inactive),12.2 µM (inactive),17.6 µM (inactive),11.2 µM (inactive),18.6 µM (inactive),9.29 µM (inactive),15.2 µM (inactive),4.2 µM (inactive)
O=C1NCC(CSc2nc3cc(C4CCCc5c4[nH]c4ccccc54)ccc3o2)N1 (stereo not given),45.1 µM (inactive),32.5 µM (inactive),29.2 µM (inactive),41.5 µM (inactive),38.1 µM (inactive),35.2 µM (inactive),44.1 µM (inactive),26.5 µM (inactive),43.5 µM (inactive),28.5 µM (inactive),> 100 µM (inactive),50.4 µM (inactive),49.7 µM (inactive),53.7 µM (inactive),61.4 µM (inactive),56.4 µM (inactive),30.9 µM (inactive),33.4 µM (inactive),32.5 µM (inactive),21.2 µM (inactive)
CCCCCCCC(=O)NC(C)(C)C(=O)NC(COC(C)(C)C)C(=O)NC(CC(C)C)C(=O)NC(C)(C)C(=O)NC(COC(C)(C)C)C(=O)NC(COC(C)(C)C)C(=O)NC(CC(C)C)C(=O)NC(C)(C)C(=O)NC(COC(C)(C)C)C(=O)NC(C(=O)NC(CC(C)C)C(=O)OC)C(C)CC (stereo not given) (Octanoyl-[Aib]S(tBu)L[Aib]S(tBu)S(tBu)L[Aib]S(tBu)IL-OMe; configuration not given here),8.81 µM (inactive),4.7 µM (inactive),6.41 µM (inactive),18.5 µM (inactive),8.85 µM (inactive),4.79 µM (inactive),4.85 µM (inactive),3.57 µM (inactive),6.4 µM (inactive),6.22 µM (inactive),9.31 µM (inactive),> 25 µM (inactive),7.57 µM (inactive),7.55 µM (inactive),6.55 µM (inactive),6.67 µM (inactive),7.94 µM (inactive),7.18 µM (inactive),5.61 µM (inactive),4.43 µM (inactive)
O=S(=O)(O)c1ccc2c(/N=N/c3ccc(S(=O)(=O)O)c4ccccc34)c(O)c(S(=O)(=O)O)cc2c1,> 100 µM (inactive),> 100 µM (inactive),> 100 µM (inactive),> 100 µM (inactive),> 100 µM (inactive),> 100 µM (inactive),> 100 µM (inactive),> 100 µM (inactive) and 63.5 µM (inactive),> 100 µM (inactive),> 100 µM (inactive),> 100 µM (inactive),> 100 µM (inactive),> 100 µM (inactive),> 100 µM (inactive),> 100 µM (inactive),> 100 µM (inactive),> 100 µM (inactive),> 100 µM (inactive),> 100 µM (inactive),> 100 µM (inactive)
O=C1CS(=O)(=O)C(c2cccc(Oc3ccccc3)c2)N1c1ccc(Cl)cc1 (stereo not given),14.8 µM (inactive),21.1 µM (inactive),16.8 µM (inactive),15.6 µM (inactive),30.1 µM (inactive),25.6 µM (inactive),24.2 µM (inactive),18.6 µM (inactive),26.5 µM (inactive),12.3 µM (inactive),46.7 µM (inactive),18.9 µM (inactive),22.1 µM (inactive),46.7 µM (inactive),17.7 µM (inactive),14.8 µM (inactive),17.1 µM (inactive),7.91 µM (inactive),14.4 µM (inactive),6.14 µM (inactive)
CCCCCCC(O)C(O)CCC(O)C1CCC(CCCCC(O)CC2=CC(C)OC2=O)O1 (stereo not given) [ACETOGENINS],1.86 µM (inactive),0.161 µM (active),7.71 µM (inactive),2.2 µM (inactive),2.23 µM (inactive),3.58 µM (inactive),1.71 µM (inactive),5.87 µM (inactive),1.83 µM (inactive),1.04 µM (active),3.81 µM (inactive),1.14 µM (inactive),3.08 µM (inactive),2.74 µM (inactive),1.75 µM (inactive),2.15 µM (inactive),17.4 µM (inactive),2.8 µM (inactive),1.39 µM (inactive),4.88 µM (inactive)
